In patent US5700640A, “Inducers of gamma globin gene expression and screening assays therefor” (priority 1994, dated 1997):

Legend:
[1] = tested on: gamma globin promoter deletion-luciferase constructs in K562 cells; test: BA inducibility of gamma globin promoter deletion constructs; type: cell-based, human; details: 5 mM BA, 24 hours
Description: Luciferase reporter gene constructs containing serial deletions in the 5' end of the gamma globin promoter were made by cloning truncated promoter DNA fragments upstream (i.e., 5') of the luciferase gene in pGL2. The gamma globin 3' Proximal Enhancer element (3'PE) was cloned downstream (i.e., 3') of the luciferase reporter gene in these constructs. Truncated gamma globin promoter DNA fragments were generated by PCR using as the upstream primer oligonucleotides having the sequences:
To create a construct with 5' terminus at position -140, the -577 reporter gene construct was digested with NcoI and KpnI, the fragment containing the deleted promoter and reporter gene (i.e., the large restriction fragment) was treated with T4 DNA polymerase to fill-in the restriction sites and the fragment was treated with T4 DNA ligase to religate the construct.
To determine the inducibility of each deletion construct by butyric acid, the constructs were introduced into K562 cells by electropotation as described above. Forty-eight hours after transfection, the cells were treated with 5 mMBA. Luciferase activity was measured 24 hours later. The inducibility of the deletion constructs is illustrated in FIGS. 16 and 17.

[2] = tested on: gamma globin gene expression; details: cited from earlier work
[3] = Blau et al. 1993; cited from earlier work

SMILES: CCCC(=O)O [BA, butyric acid]
- BA inducibility on promoter deletion to -108 [1]: markedly reduced the BA inducibility of the construct
- BA responsiveness on promoter deletion from -1260 to -140 [1]: did not significantly alter the responsiveness of the reporter construct to BA
- effect on gamma globin gene expression ([2]; in vitro and in vivo): increase gamma globin gene expression in vitro and in vivo
- effect on fetal to adult hemoglobin switch ([2]; in vivo): delay the fetal to adult hemoglobin switch in vivo
- toxicity of high dosages [3]: associated with toxicity, in particular neurologic toxicity
